The assay has as its target T1, presenilin (Homo sapiens, UniProt P49768).
T1 construct: endogenous in cells; probably K293
As to the kind of experiment: Pulse-chase of cells stably expressing F-NEXT with or without γ-secretase inhibitor; immunoprecipitation/SDS-PAGE of media (Nβ release) and lysates (NICD). To be noted: 1 μM inhibitor, 1 hour pulse, 2-hour chase. The format is cell-based. Here is the method:
Human embryonic kidney 293 (K293), N2a and COS cells were cultured in DMEM supplemented with 10% fetal bovine serum, 1% penicillin/streptomycin, and 200 μg/ml zeocin (to select for PS1 expression), and/or 100 μg/ml hygromycin (to select for NΔE and F-NEXT expression). The K293 can stably express wild-type PS1, PS1 L286V, or PS1 D385N (Okochi et al, 2000, Kulic et al, 2000, Wolfe et al., 1999). The transfection with NΔE or F-NEXT was performed by means of a product named Lipofectamine 2000 (Invitrogen).
To determine NΔE N-terminal fragment (NTF: Nβ) release from NΔE expressing cells, K293 cells stably transfected with NΔE or NICD were grown to confluence in a 10 cm dish. The cells were then metabolically pulse-labeled for 2 hours with 300 μCi [^3H] amino acids (tritiated amino acid mixture, Amersham) in Earle's Balanced Salt Solution supplemented with MEM Vitamine Solution (Gibco) and several cold amino acids, followed by a 6-hour chase by 10% FCS/DMEM. To examine Nβ release, cells expressing F-NEXT were, at first, starved of methinine for 40 min with methionine-free media and then pulse-labeled for 1 hour with 400 μCi [^35S] amino acid mixture (Redivue Promix, Amersham) in methionine-free DMEM, followed by chasing for various time periods with the chase media containing 10% FCS/DMEM supplemented with excess cold methionine. […]

Structures are written as SMILES.

Take `CC(C)C[C@H](NC(=O)[C@H](Cc1ccccc1)C[C@@H](O)[C@H](Cc1ccccc1)NC(=O)OC(C)(C)C)C(=O)N[C@@H](Cc1ccccc1)C(N)=O` [L685,458, [(2R,4R,5S)-2-Benzyl-5-(Boc-amino)-4-hydroxy-6-phenyl-hexanoyl]-Leu-Phe-NH2]: the “NICD band in cell lysates (S3 cleavage), immunoprecipitated with 9E10” value (FIG. 5B lower panel) was “hardly visible”. Where the note is “FIG. 5B upper panel”, the “Nβ release to culture media (S4 cleavage), immunoprecipitated with M2-agarose” value is given as “decreased drastically”.

For the origin of these results see patent US20100173331A1, “NOVEL NOTCH-ORIGIN POLYPEPTIDES AND BIOMARKERS AND REAGENTS USING THE SAME” (priority 2002, published 2010).
